Data: patent US7893055B2, “HIV integrase inhibitors” (priority 2006, dated 2011)

These molecules were tested against T1, HIV-integrase (Human immunodeficiency virus type 1 group M subtype B, UniProt P12497) (assay: HIV-Integrase Inhibition Activity (SPA strand transfer assay)). Details: recombinant integrase, SPA beads, P33 labeled target DNA; read-out: Activity (IC50 class, HIV-integrase inhibition).
T1 construct: Recombinant integrase (0.26 ng) was incubated with the beads
Assay type: biochemical
Method: HIV-Integrase InhibitionActivity. To evaluate in-vitro activity against HIV-integrase, 5 pmole of biotin labeled substrate DNA was bound to 100 μg of Streptavidin coated PVT SPA beads (Amersham Pharmacia Biotech). Recombinant integrase (0.26 ng) was incubated with the beads for 90 min at 37° C. Unbound enzyme was removed by washing the complex followed by addition of inhibitors and 0.1 fmol of P33 labeled target DNA. The reaction was stopped by adding EDTA to a final concentration of 10 mM. Samples were counted in TopCountNXT (Packard) and the CPM was used as a measure of integration. The reaction condition was as described in A. Engelman and R. Craigie, J. Virol. 69, 5908-5911 (1995). The sequences of substrate and target DNA were described in Nucleic Acid Research 22, 1121-1122 (1994). Activity equal to A refers to a compound having IC50=0.002 to 0.10 μM while B and C denote compounds having IC50=0.1 to 1.0 μM and IC50≧1.0 μM respectively.

Row | Molecule | IC50
1 | Cc1csc(CNC(=O)c2nc3n(c(=O)c2O)CCOC3(C)C)c1 [Example 30, Pyrimido[2,1-c][1,4]oxazine-2-carboxamide, 4,6,7,9-tetrahydro-3-hydroxy-9,9-dimethyl-N-[(4-methyl-2-thienyl)methyl]-4-oxo-] | 2 to 100 nM
2 | Cc1cc(CNC(=O)c2nc3n(c(=O)c2O)CCOC3(C)C)sc1C [Example 31, N-((4,5-dimethyl-2-thienyl)methyl)-3-hydroxy-9,9-dimethyl-4-oxo-4,6,7,9-tetrahydropyrimido[2,1-c][1,4]oxazine-2-carboxamide] | 2 to 100 nM
3 | Cc1cc(CNC(=O)c2nc3n(c(=O)c2O)CCOC3(C)C)cs1 [Example 32, Pyrimido[2,1-c][1,4]oxazine-2-carboxamide, 4,6,7,9-tetrahydro-3-hydroxy-9,9-dimethyl-N-[(5-methyl-3-thienyl)methyl]-4-oxo-] | 2 to 100 nM
4 | Cc1cc(Br)c(CNC(=O)c2nc3n(c(=O)c2O)CCOC3(C)C)s1 [Example 33, Pyrimido[2,1-c][1,4]oxazine-2-carboxamide, N-[(3-bromo-5-methyl-2-thienyl)methyl]-4,6,7,9-tetrahydro-3-hydroxy-9,9-dimethyl-4-oxo-] | 2 to 100 nM
5 | Cc1cc(C#N)c(CNC(=O)c2nc3n(c(=O)c2O)CCOC3(C)C)s1 [Example 34, Pyrimido[2,1-c][1,4]oxazine-2-carboxamide, N-[(3-cyano-5-methyl-2-thienyl)methyl]-4,6,7,9-tetrahydro-3-hydroxy-9,9-dimethyl-4-oxo-] | 2 to 100 nM
6 | CC1=CC=C(CNC(=O)c2nc3n(c(=O)c2O)CCOC3(C)C)S1(=O)=O [Example 35, Pyrimido[2,1-c][1,4]oxazine-2-carboxamide, 4,6,7,9-tetrahydro-3-hydroxy-9,9-dimethyl-N-[(5-methyl-1,1-dioxido-2-thienyl)methyl]-4-oxo-] | ≥ 1000 nM
7 | CC1(C)OCCn2c1nc(C(=O)NCc1ccsc1)c(O)c2=O [Example 36, Pyrimido[2,1-c][1,4]oxazine-2-carboxamide, 4,6,7,9-tetrahydro-3-hydroxy-9,9-dimethyl-4-oxo-N-(3-thienylmethyl)-] | 2 to 100 nM
8 | Cc1ccc(CNC(=O)c2nc3n(c(=O)c2O)CCOC3(C)C)o1 [Example 37, Pyrimido[2,1-c][1,4]oxazine-2-carboxamide, 4,6,7,9-tetrahydro-3-hydroxy-9,9-dimethyl-N-[(5-methyl-2-furanyl)methyl]-4-oxo-] | 2 to 100 nM
9 | CC1(C)OCCn2c1nc(C(=O)NCc1ccco1)c(O)c2=O [Example 38, Pyrimido[2,1-c][1,4]oxazine-2-carboxamide, N-(2-furanylmethyl)-4,6,7,9-tetrahydro-3-hydroxy-9,9-dimethyl-4-oxo-] | 2 to 100 nM
10 | Cc1nn(C)c(C)c1CNC(=O)c1nc2n(c(=O)c1O)CCOC2(C)C [Example 39, Pyrimido[2,1-c][1,4]oxazine-2-carboxamide, 4,6,7,9-tetrahydro-3-hydroxy-9,9-dimethyl-4-oxo-N-[(1,3,5-trimethyl-1H-pyrazol-4-yl)methyl]-] | 100 to 1000 nM
11 | CCn1cc(CNC(=O)c2nc3n(c(=O)c2O)CCOC3(C)C)cn1 [Example 65, Pyrimido[2,1-c][1,4]oxazine-2-carboxamide, N-[(1-ethyl-1H-pyrazol-4-yl)methyl]-4,6,7,9-tetrahydro-3-hydroxy-9,9-dimethyl-4-oxo-] | 100 to 1000 nM
12 | CC1(C)OCCn2c1nc(C(=O)NCc1cc(C(=O)O)co1)c(O)c2=O [Example 75, 3-Furancarboxylic acid, 5-[[[(4,6,7,9-tetrahydro-3-hydroxy-9,9-dimethyl-4-oxopyrimido[2,1-c][1,4]oxazin-2-yl)carbonyl]amino]methyl]] | ≥ 1000 nM
13 | CC1(C)OCCn2c1nc(C(=O)NCC1Cc3ccccc3O1)c(O)c2=O (stereo not drawn) [Example 76, N-(2,3-dihydro-1-benzofuran-2-ylmethyl)-3-hydroxy-9,9-dimethyl-4-oxo-4,6,7,9-tetrahydropyrimido[2,1-c][1,4]oxazine-2-carboxamide] | 2 to 100 nM
14 | Cc1ccc(CNC(=O)c2nc3n(c(=O)c2O)CCN(C)C32CCC2)o1 [Example 77, 3′-Hydroxy-8′-methyl-N-((5-methyl-2-furyl)methyl)-4′-oxo-7′,8′-dihydro-4′H,6′H-spiro[cyclobutane-1,9′-pyrazino[1,2-a]pyrimidine]-2′-carboxamide] | 2 to 100 nM
15 | CC1(C)OCCn2c1nc(C(=O)NCc1nn(S(C)(=O)=O)c3ccccc13)c(O)c2=O [Example 78, 3-Hydroxy-9,9-dimethyl-N-((1-(methylsulfonyl)-1H-indazol-3-yl)methyl)-4-oxo-4,6,7,9-tetrahydropyrimido[2,1-c][1,4]oxazine-2-carboxamide] | 2 to 100 nM
16 | COC(=O)n1nc(CNC(=O)c2nc3n(c(=O)c2O)CCOC3(C)C)c2ccccc21 [Example 79, Methyl 3-((((3-hydroxy-9,9-dimethyl-4-oxo-4,6,7,9-tetrahydropyrimido[2,1-c][1,4]oxazin-2-yl)carbonyl)amino)methyl)-1H-indazole-1-carboxylate] | 2 to 100 nM
17 | CNC(=O)n1nc(CNC(=O)c2nc3n(c(=O)c2O)CCOC3(C)C)c2ccccc21 [Example 80, 3-Hydroxy-9,9-dimethyl-N-((1-(methylcarbamoyl)-1H-indazol-3-yl)methyl)-4-oxo-4,6,7,9-tetrahydropyrimido[2,1-c][1,4]oxazine-2-carboxamide] | 2 to 100 nM
18 | CC(=O)n1nc(CNC(=O)c2nc3n(c(=O)c2O)CCOC3(C)C)c2ccccc21 [Example 81, N-((1-Acetyl-1H-indazol-3-yl)methyl)-3-hydroxy-9,9-dimethyl-4-oxo-4,6,7,9-tetrahydropyrimido[2,1-c][1,4]oxazine-2-carboxamide] | 2 to 100 nM
19 | Cc1ccc(CNC(=O)c2nc3n(c(=O)c2O)CCCC32CCC2)o1 [Example 82, 3′-Hydroxy-N-((5-methyl-2-furyl)methyl)-4′-oxo-7′,8′-dihydro-4′H,6′H-spiro[cyclobutane-1,9′-pyrido[1,2-a]pyrimidine]-2′-carboxamide] | 2 to 100 nM
20 | Cc1csc(CNC(=O)c2nc3n(c(=O)c2O)CCCC32CCC2)c1 [Example 83, 3′-Hydroxy-N-((4-methyl-2-thienyl)methyl)-4′-oxo-7′,8′-dihydro-4′H,6′H-spiro[cyclobutane-1,9′-pyrido[1,2-a]pyrimidine]-2′-carboxamide] | 2 to 100 nM
21 | Cc1ccc(CNC(=O)c2nc3n(c(=O)c2O)CCCC32CCC2)s1 [Example 84, 3′Hhydroxy-N-((5-methyl-2-thienyl)methyl)-4′-oxo-7′,8′-dihydro-4′H,6′H-spiro[cyclobutane-1,9′-pyrido[1,2-a]pyrimidine]-2′-carboxamide] | 2 to 100 nM
22 | Cc1nnc(CNC(=O)c2nc3n(c(=O)c2O)CCOC3(C)C)o1 [Example 86, 3-Hydroxy-9,9-dimethyl-N-((5-methyl-1,3,4-oxadiazol-2-yl)methyl)-4-oxo-4,6,7,9-tetrahydropyrimido[2,1-c][1,4]oxazine-2-carboxamide] | ≥ 1000 nM
23 | CSc1ccc(CNC(=O)c2nc3n(c(=O)c2O)CCOC3(C)C)o1 [Example 87, 3-Hydroxy-9,9-dimethyl-N-((5-(methylthio)furan-2-yl)methyl)-4-oxo-4,6,7,9-tetrahydropyrimido[2,1-c][1,4]oxazine-2-carboxamide] | 2 to 100 nM
24 | CC1(C)OCCn2c1nc(C(=O)NCc1ccc(S(C)(=O)=O)o1)c(O)c2=O [Example 88, 3-Hydroxy-9,9-dimethyl-N-((5-(methylsulfonyl)furan-2-yl)methyl)-4-oxo-4,6,7,9-tetrahydropyrimido[2,1-c][1,4]oxazine-2-carboxamide] | 100 to 1000 nM
25 | CC1(C)OCCn2c1nc(C(=O)NCc1cc(-c3ccccc3)no1)c(O)c2=O [Example 89, 3-Hydroxy-9,9-dimethyl-4-oxo-N-((3-phenyl-5-isoxazolyl)methyl)-4,6,7,9-tetrahydropyrimido[2,1-c][1,4]oxazine-2-carboxamide] | ≥ 1000 nM
26 | CC1(C)OCCn2c1nc(C(=O)NCc1nc3c(s1)CCCCC3)c(O)c2=O [Example 90, 3-Hydroxy-9,9-dimethyl-4-oxo-N-(5,6,7,8-tetrahydro-4H-cyclohepta[d][1,3]thiazol-2-ylmethyl)-4,6,7,9-tetrahydropyrimido[2,1-c][1,4]oxazine-2-carboxamide] | 2 to 100 nM
27 | Cc1cccc(-n2cc(CNC(=O)c3nc4n(c(=O)c3O)CCOC4(C)C)cn2)c1 [Example 91, 3-Hydroxy-9,9-dimethyl-N-((1-(3-methylphenyl)-1H-pyrazol-4-yl)methyl)-4-oxo-4,6,7,9-tetrahydropyrimido[2,1-c][1,4]oxazine-2-carboxamide] | ≥ 1000 nM
28 | CC1(C)OCCn2c1nc(C(=O)NCc1nc3ccccc3s1)c(O)c2=O [Example 92, N-(1,3-Benzothiazol-2-ylmethyl)-3-hydroxy-9,9-dimethyl-4-oxo-4,6,7,9-tetrahydropyrimido[2,1-c][1,4]oxazine-2-carboxamide] | 2 to 100 nM
29 | CCCn1ccc(CNC(=O)c2nc3n(c(=O)c2O)CCOC3(C)C)n1 [Example 93, 3-Hydroxy-9,9-dimethyl-4-oxo-N-((1-propyl-1H-pyrazol-3-yl)methyl)-4,6,7,9-tetrahydropyrimido[2,1-c][1,4]oxazine-2-carboxamide] | 100 to 1000 nM
30 | Pyrimido[2,1-c][1,4]oxazine-2- carboxamide, 4,6,7,9-tetrahydro-3- hydroxy-9,9-dimethyl-4-oxo-N- (1H-pyrazol-3-ylmethyl)- [Example 69] | 100 to 1000 nM
